Entries after “also recorded” stand apart in the source; their conditions may differ. Read-outs that look alike come from different tables or passages of the source.
Key:
[1] = test system: choline metabolism in MCF7 cells; experiment: NMR choline metabolite analysis; type: cell-based, human; conditions: for extracellular choline uptake: dose-dependent
Description: NMR Choline Metabolite Analysis
Sample preparation for the quantification of metabolites by nuclear magnetic resonance (NMR) spectroscopy was performed as described previously.[13] Briefly, 0.3 mL of cell culture medium (conditioned medium) was collected from each sample and mixed with 2 volumes of pre-chilled methanol (< -70 °C), vortexed for 30 s and placed on dry ice for at least 30 min. Following centrifugation for 20 min at 18100 × g and 0 °C, the supernatant extract of culture medium was dried and stored until NMR analysis. The remaining culture medium from each sample was discarded and cells were washed once with PBS (37 °C), and quenched with liquid nitrogen. Polar metabolites were extracted with 1.4 mL of an ice-cold solution of 67.5:7.5:25 (v/v/v) of methanol/chloroform/water.
Samples were centrifuged at 18100 × g for 15 min at 0 °C and the supernatant consisted of intracellular polar metabolites was collected and dried under nitrogen gas stream. The remaining cell pellets were used for protein mass quantification using the Pierce™ BCA Protein Assay Kit (Thermo Scientific™).
Samples from both cell culture medium and cell extracts were reconstituted in 220 µL of 50 mM phosphate buffer (pH 7.4) solution in deuterated water containing 0.05 mM trimethylsilyl propionic-d4-sodium salt (TSP-d4, Cambridge Isotope Laboratories, Inc.) as internal standard used for NMR referencing and quantification. One NMR experiment (pulse sequence: noesygppr1d; Bruker Biospin) was collected for each sample in a 14.1 T (600 MHz for 1H) Bruker Avance Neo NMR. All recorded NMR spectra were imported in Chenomx NMR suite 9.0 (Chenomx NMR suite, v9.0) for the quantification of choline, phosphocholine sn-glycero-phosphocholine (GPC) and betaine. Quantitative data (nmoles or μM) were then normalized to the amount of total protein mass (mg) of each sample. […]

[2] = target: CHKA (Homo sapiens, UniProt P35790); experiment: PISA thermal profiling, K562 cell lysates; type: binding; set-up: endogenous in cells; conditions: 30 µM; for stabilisation of CHKA (PISA): K562 cell lysates; for effect_CETSA_Lysate (PISA amplitude), CHKA: K562 lysate, 15 min, n=3
Chain of CHKA (P35790 whole entry): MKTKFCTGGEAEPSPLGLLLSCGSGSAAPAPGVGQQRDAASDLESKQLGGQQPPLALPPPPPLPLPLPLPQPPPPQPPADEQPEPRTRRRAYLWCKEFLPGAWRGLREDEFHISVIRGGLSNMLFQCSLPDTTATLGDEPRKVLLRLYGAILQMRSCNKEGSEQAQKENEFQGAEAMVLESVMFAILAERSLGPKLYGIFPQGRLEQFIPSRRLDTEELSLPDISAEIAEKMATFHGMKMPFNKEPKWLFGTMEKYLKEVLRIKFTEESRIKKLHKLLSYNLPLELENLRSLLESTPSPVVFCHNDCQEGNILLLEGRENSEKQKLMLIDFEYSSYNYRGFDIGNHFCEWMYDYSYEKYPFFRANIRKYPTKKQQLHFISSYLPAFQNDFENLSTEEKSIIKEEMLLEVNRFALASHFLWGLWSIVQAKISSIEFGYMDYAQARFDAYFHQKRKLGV
Description: Experiments were performed as described earlier with few modifications. In short, 3 replicates of intact HepG2 cells were treated with 30 µM UNC0638, […] or corresponding volume of DMSO in medium-free experimental buffer for 60 min at 37 °C with end-over-end rotation. For lysates: Washed K562 cells were resuspended in medium-free experimental buffer and lysed by three freeze-thaw cycles. Lysate was centrifugated 20,000 × g for 20 min at 4 °C to remove cell debris. The cleared lysate was treated with 30 µM UNC0638, UNC0373 or corresponding volume of DMSO for 15 min at RT with end-over-end rotation. Each treated cell suspension or lysate was divided into 12 aliquots and subjected to a 12-step heat gradient from 44 °C to 64 °C. All the temperature points were pooled together to form […] individual samples. Soluble fraction was separated from precipitated proteins […]
by centrifugation at 30,000 × g for 20 min at 4 °C. The soluble fractions were collected to fresh tubes and further processed to be analysed with mass spectrometry. Sample handling, TMT labelling, LC-MS/MS analysis, protein identification and data analysis was performed as described earlier.[12] […]
Figure S3: Western blot of elution fractions after chemical pulldown with UNC0965 in MCF7 cell extract pre-incubated with indicated compounds (20 μM) or DMSO.
Figure S4: PISA thermal profiling results in K562 cell lysates. A) Volcano plots of UNC0638 and […]
Dashed lines represent amplitude > 0.05, < - 0.05 and log10(adjusted p-values) > 2 (two-sided two sample t-test, Benjamini-Hochberg corrected, n = 3).
6,924 proteins were identified. B) UNC0737 stabilises CHKA stronger than UNC0638. […]

| SMILES | betaine [1] | intracellular choline levels [1] | phosphocholine (pCho) formation/levels relative to control [1] | sn‐glycerophosphocholine (GPC) [1] | extracellular choline uptake [1] | stabilisation of CHKA (PISA) [2] | effect_CETSA_Lysate (PISA amplitude), CHKA [2] | phosphocholine (pCho) formation/levels relative to control ([1]; listed as UN0737) |
| --- | --- | --- | --- | --- | --- | --- | --- | --- |
| COc1cc2c(NC3CCN(C(C)C)CC3)nc(C3CCCCC3)nc2cc1OCCCN1CCCC1 [UNC0638] | did not observe changes | not significantly affected | reduction of pCho formation; also recorded: significantly reduced | not significantly affected | decrease in extracellular choline uptake | selective stabilisation of CHKA | 0.202 |  |
| COc1cc2c(N(C)C3CCN(C(C)C)CC3)nc(C3CCCCC3)nc2cc1OCCCN1CCCC1 [UNC0737] | did not observe changes | not significantly affected | reduction of pCho formation | not significantly affected | decrease in extracellular choline uptake | selective stabilisation of CHKA | 0.504 | significantly reduced |

Source: paper PMC11811597, “Phenomics‐Based Discovery of Novel Orthosteric Choline Kinase Inhibitors” (Angewandte Chemie (International Ed. in English), 2025)
